Consider two substances from patent publication US9018168B2, “Therapeutic method for treating congestive heart failure” (Madeleine Pharmaceuticals Pty Ltd, priority 2010, dated 2015).

The test system of series [1] is subjects with chronic CHF or ADCHF (NYHA class III - NYHA class IV). Briefly: Example 1: treatment of ADCHF with iv administration of vessel dilator. The format is in vivo, human. The source says:
This example describes a study to examine whether VSDL administration to ADCHF patients will be safe and induce improvements in haemodynamic parameters, as well as renal, natriuretic and diuretic parameters, whilst regulating plasma volume and BP within clinically acceptable ranges and without seriously adverse side effects.
VSDL in the form of a white lyophilised powder (synthesised using standard protein synthesis method by Auspep Pty Ltd, Parkville, VIC, Australia), stored in an ultra low freezer (−80° C.), was reconstituted in a vial with 10 ml of 0.9% saline (preservative free) and aseptically transferred into a 20 ml syringe (that connects to a patient cannula) before use.
Initially, an iv dose of 12.5 ng/kg/min was infused into test subjects for 60 minutes with a syringe driver (Alaris Asena GS syringe driver; C are Fusion Corporation, San Diego, Calif., United States of America). This “safety dose” was chosen merely to trial the subjects for any adverse effects. Subsequently, a dose of 25 ng/kg/min (as infused for 60 minutes) was trialled. Additionally, a trial will be conducted with a dose of 50 ng/kg/min (for 60 minutes).
Test adult subjects, both male and female, showing either acute exacerbations of chronic CHF or ADCHF (ie in individuals who had not previously shown heart failure), were recruited for the study. The following inclusion and exclusion criteria were applied:
In order to be eligible, a subject must have chronic CHF or ADCHF (NYHA class III—NYHA class IV) defined as: • 1. Showing dyspnoea at rest or dyspnoea with minimal activity (ie difficulty breathing at rest while sitting, or difficulty breathing while lying flat or with one pillow, or difficulty breathing with minimal activity such as talking, eating); AND • 2. Showing at least one of the following signs: • Tachypnoea with respiratory rate >20 breaths per minute, OR • Pulmonary congestion/oedema with rales or crackles/crepitations at least a third above lung bases; AND • 3. At least one of the following objective measures: • Showing, by chest X-ray, pulmonary oedema/congestions OR • Circulating B-type natriuretic peptide (BNP) concentration of ≧400 pg/ml or circulating NT-proBNP concentration of ≧1000 pg/ml at presentation, OR • PCWP >20 mmHg OR • Showing systolic dysfunction within the last 12 months (EF<50%) as determined by TTE, nuclear testing, cardiac MRI or ventricular angiography); and be: • 4. Male and/or female, 18 years or older; and • 5. If a woman of child bearing potential, testing negative to 13-hCG. Exclusion Criteria: • 1. Evidence in the ED for Myocardial Infarction (MI) or high risk acute coronary syndrome within past 6 weeks, as determined by creatinine kinase (CK)/creatinine kinase muscle-brain isoenzyme (CK-MB) ≧2 times upper limit of normal or elevation of Troponin T at baseline >0.1 or as determined by Trans-Thoracic […] (TTE); • 2. Hypotension (SBP <90 mmHg), cardiogenic shock, volume depletion; • 3. Persistent, uncontrolled hypertension (SBP >180 mm Hg); • 4. Subjects with the presence of any CMR contra-indication (including PPM, cerebral aneurysm clips or non-MM approved metallic implant) are excluded from any MRI study component only; • 5. Congenital heart defects (including Ventricular Septal Defect, Atrial Septal Defect, Patent Ductus Arteriosus, Tetralogy of Fallot, and Tricuspid Atresia); • 6. Cardiac surgery within past 4 weeks; • 7. Diastolic heart failure (preserved left ventricular function—determined by known history, ie E:E prime ratio>15); • 8. Severe valvular heart disease: Aortic Stenosis <1.0 cm^2, any Idiopathic hypertrophic subaortic stenosis or Hypertrophic Obstructive Cardiomyopathy, acute Aortic Regurgitation grade 3 or 4 and Mitral Regurgitation grade 3 or 4; • 9. History of cerebrovascular accident (within past 4 weeks) as determined by MM or Computerised Tomography (CT) Scan; • 10. […]

For series [2] the following is noted: cited from earlier work.
The nature of series [3]: Expected increase in total circulating VSDL at originally selected doses. In kind it is in vivo, human. As to the method:
Since it was thought that subjects suffering significant CHF are unable to produce adequate endogenous amounts of natriuretic peptides to compensate for congestion, the present applicant had selected doses of exogenous VSDL infusion of 50 ng/kg/min, 100 ng/kg/min and 200 ng/kg/min for 60 minutes to ascertain the approximate amounts of exogenous VSDL required by late NHYA class III—NYHA class IV patients to reinstate homeostasis. Such doses were expected to result in an approximately 2-fold, 4-fold and 8-fold increase in total circulating VSDL, respectively. Further, the present applicant had particularly proposed an exogenous dose of VSDL at <100 ng/kg/min (for 60 mins) for the treatment of chronic CHF or ADCHF as a safe and effective dosage, since it has been identified that the release rate from the heart of VSDL with physiological stimuli is about 138 ng/kg body weight per minute^16 and similar dosages have been previously observed to cause a marked natriuresis and diuresis in healthy humans^17, 18 and, also, improved haemodynamic and renal parameters in persons with stable NYHA class III chronic CHF^10. The molar equivalent of the 100 ng/kg body weight dose (for 60 mins) is 26 pmol/kg body weight (for 60 mins). […] In particular, at 12.5 ng/kg/min (for 60 mins) and 25 ng/kg/min (for 60 mins). […]

The nature of series [4]: Example 2: estimation of baseline and Cmax for VSDL following infusion (blood samples, mass spectroscopy). The format is in vivo, human. To be noted: for half-life: read-out: estimated half-life (t1/2). The source says:
Following the surprising finding that beneficial effects for the treatment of chronic CHF can be achieved with doses that are much less than that which had been proposed, a study was undertaken to estimate the baseline levels of VSDL and Cmax (ie the peak VSDL concentration that is achieved) following infusion.
The baseline VSDL concentration (ie endogenous level) was estimated from an identical sample taken prior to infusion (ie “predose”).

Series [5] concerns patients with chronic, but stable, New York Heart Association (NYHA) Class III CHF. To be noted: cited from earlier work.
Where [6] appears, read: 25 ng/kg/min iv for 60 mins, 24 hrs post-infusion.
Setting [7] is: 25 ng/kg/min iv for 60 mins, Baseline.
[8] abbreviates: Subject #2, 12.5 ng/kg/min iv for 60 mins.
Setting [9] is: Subject #3, 12.5 ng/kg/min iv for 60 mins.
The mark [10] stands for this setting: one subject, 25 ng/kg/min iv for 60 mins.

As usually defined, the Tmax is the time at which the peak concentration occurs. One may read the Cmax as the maximum level reached in the sampled fluid or tissue.

Where two headings read alike, the source gives them in different places. No end group written: not given here.

As for “EVVPPQVLSEPNEEAGAALSPLPEVPPWTGEVSPAQR [VSDL]”, the “safety risks seen by reviewers” value is reported as “no safety risks” in series [1] (12.5 ng/kg/min iv for 60 mins, three subjects) and “no safety risks” in series [1] (setting [10]). Also, the CK in series [1] (setting [6]) is listed as 156 U/L; in series [1] (setting [7]), 188 U/L. In addition, the CK-MB in series [1] (setting [6]) was 1.3 µg/L; in series [1] (setting [7]) it was 2.0 µg/L. The “Troponin T” value in series [1] (setting [6]) and in series [1] (setting [7]) was less than 0.02 µg/L throughout. Further, in series [1] (setting [8]), the “clinical state during the 24 hours following the infusion” value is on record as “stable during the 24 hours”. Further, the side-effects entry in series [1] (setting [8]) is “global dyskinesis and no side-”. In addition, the figures for the tolerability of infusion entry in series [1] (setting [8]), in series [1] (setting [9]) and in series [1] (setting [10]) were “infusion was well tolerated by”, “subject tolerated the infusion” and “well tolerated”, respectively. In series [1] (setting [9]), the “clinical state during and within 24 hours following the infusion” value is on record as “clinically stable during this”. Besides, the side effects entry in series [1] (setting [10]) is reported as “no side effects”. For the same substance, in series [2] (previously reported), the “biological t1/2” value is reported as more than 6 hours. Moreover, the “circulatory t1/2” value in series [2] (previously reported) was 120 min. Also, the “expected increase in total circulating VSDL” value is given as approximately 4 fold in series [3] (100 ng/kg/min for 60 minutes) and approximately 8 fold in series [3] (200 ng/kg/min for 60 minutes). In addition, the “Corrected Concentration” value in series [4] (0.5 hrs following infusion) is 4.376 ng/mL; in series [4] (1 hrs following infusion) it was 4.376 ng/mL; in series [4] (1.5 hrs following infusion), 1.176 ng/mL; in series [4] (2 hrs following infusion), 0.556 ng/mL; in series [4] (3 hrs following infusion), 0.136 ng/mL; in series [4] (4 hrs following infusion), 0.061 ng/mL. Also, the “Corrected Concentration” value in series [4] (5 hrs following infusion) is 0.022 ng/mL; in series [4] (6 hrs following infusion) it was 0.005 ng/mL; in series [4] (12 hrs following infusion), 0.018 ng/mL; in series [4] (Predose), 0.024 ng/mL. Moreover, the half-life was 20 min in series [4] (human, blood, intravenous, terminal elimination rate using the LOQ of 0.2 ng/ml); 25 to 30 min in series [4] (human, blood, intravenous, using the point just below the LOQ, excluding and including the Cmax values). Moreover, in series [4] (human, blood, intravenous, CHF patient (NYHA class III), following infusion), the Tmax is 30 min. Also, in series [4] (human, blood, iv, 0.5 hrs following infusion, read-out: Concentration), the level at 0.5 h is 4.4 ng/mL. Also, in series [4] (human, blood, iv, 1 hrs following infusion, read-out: Concentration), the level at 1 h is 4.4 ng/mL. Besides, the level at 1.5 h in series [4] (human, blood, iv, 1.5 hrs following infusion, read-out: Concentration) is 1.2 ng/mL. The level at 2 h in series [4] (human, blood, iv, 2 hrs following infusion, read-out: Concentration) is 0.58 ng/mL. Besides, in series [4] (human, blood, iv, 3 hrs following infusion, read-out: Concentration), the level at 3 h is 0.16 ng/mL. Also, the level at 4 h in series [4] (human, blood, iv, 4 hrs following infusion, read-out: Concentration) is 0.085 ng/mL. Also, the level at 5 h in series [4] (human, blood, iv, 5 hrs following infusion, read-out: Concentration) is 0.046 ng/mL. Also, the level at 6 h in series [4] (human, blood, iv, 6 hrs following infusion, read-out: Concentration) was 0.029 ng/mL. Besides, in series [4] (human, blood, iv, 12 hrs following infusion, read-out: Concentration), the level at 12 h was 0.042 ng/mL. Further, the highest concentration (Cmax) in series [4] (human, intravenous, CHF patient (NYHA class III), blood, following infusion, baseline-corrected) was 4.38 ng/mL. For the same substance, the “elimination of VSDL from the blood stream” value in series [4] (measured concentration profile (FIG. 3)) is reported as “does not clearly follow first order kinetics”. For the same substance, the “baseline (endogenous) VSDL concentration” value in series [4] (predose blood sample, CHF patient (NYHA class III)) is 0.024 ng/mL. Besides, in series [5], the symptomatic side effects entry is “without any symptomatic side effects”.
Turning to “B-type natriuretic peptide [BNP, reference compound]”, in series [2] (in vivo), the “biological t1/2” value is reported as “< ½” and the “circulatory t1/2” value is approximately 3.1 min.
